Assay results from patent US5106961A, “Erythromycin ring-contracted derivatives” (Eli Lilly and Company, priority 1989, dated 1992).
≈ marks a conversion by molar mass, not a printed value. Where two headings read alike, the source gives them in different places.

Columns and labels:
Type in all cases: cell-based
[1] = test system: Staphylococcus epidermidis 222; assay: Agar-dilution MIC, Staphylococcus epidermidis 222; conditions: read-out: minimal inhibitory concentration (MIC)
Text: (§1) The compounds of formulas 1 and 2 inhibit the growth of certain pathogenic bacteria, especially Gram-positive bacteria and Gram-negative […] such as Haemophilus influenzae.

[2] = test system: Staphylococcus aureus X1.1; assay: Agar-dilution MIC, Staphylococcus aureus X1.1
Text: as §1

[3] = test system: Haemophilus influenzae C.L.; assay: Agar-dilution MIC, Haemophilus influenzae C.L.; conditions: ampicillin-sensitive strain, read-out: minimal inhibitory concentration (MIC)
Text: as §1

[4] = test system: Streptococcus pyogenes C203; assay: Agar-dilution MIC, Streptococcus pyogenes C203; conditions: read-out: minimal inhibitory concentration (MIC)
Text: as §1

[5] = test system: Staphylococcus aureus V41; assay: Agar-dilution MIC, Staphylococcus aureus V41; conditions: Staphylococcus aureus V41, penicillin-resistant strain, read-out: minimal inhibitory concentration (MIC)
Text: as §1

[6] = test system: Staphylococcus epidermidis 270; assay: Agar-dilution MIC, Staphylococcus epidermidis 270; conditions: read-out: minimal inhibitory concentration (MIC)
Text: as §1

[7] = test system: Haemophilus influenzae 76; assay: Agar-dilution MIC, Haemophilus influenzae 76; conditions: Haemophilus influenzae 76, ampicillin-resistant strain, read-out: minimal inhibitory concentration (MIC)
Text: as §1

[8] = test system: Streptococcus faecalis X66; assay: Agar-dilution MIC, Streptococcus faecalis X66; conditions: Enterococcus faecalis, read-out: minimal inhibitory concentration (MIC)
Text: as §1

[9] = test system: Streptococcus faecalis 2041; assay: Agar-dilution MIC, Streptococcus faecalis 2041; conditions: Enterococcus faecalis, read-out: minimal inhibitory concentration (MIC)
Text: as §1

[10] = test system: Streptococcus pneumoniae Park I; assay: Agar-dilution MIC, Streptococcus pneumoniae Park I; conditions: read-out: minimal inhibitory concentration (MIC)
Text: as §1

[11] = Staphylococcus aureus X1.1, agar dilution, read-out: minimal inhibitory concentration (MIC)

Question: With `CC[C@@H](O)[C@@](C)(O)[C@@H]1OC(=O)[C@H](C)[C@@H](O[C@H]2C[C@@](C)(OC)[C@@H](O)[C@H](C)O2)[C@H](C)[C@@H](O[C@@H]2O[C@H](C)C[C@H](N(C)C)[C@H]2O)[C@@]2(C)CC(C)=C(O2)[C@@H]1C` [Compound 3] as the compound, how does the MIC [1] read?
Answer: > 128 µg/mL

Question: And the MIC [2, 11]?
Answer: > 128 µg/mL

Question: What about the MIC [3] of the same compound?
Answer: 32 µg/mL (≈ 44.7 µM)

Question: And the MIC [4]?
Answer: 32 µg/mL (≈ 44.7 µM)

Question: And the MIC [5]?
Answer: > 128 µg/mL

Question: What about the MIC [6] of the same compound?
Answer: > 128 µg/mL

Question: And the MIC [7]?
Answer: 32 µg/mL (≈ 44.7 µM)

Question: And the MIC [8]?
Answer: 64 µg/mL (≈ 89.4 µM)

Question: And the MIC [9]?
Answer: > 128 µg/mL

Question: What about the MIC [10] of the same compound?
Answer: 16 µg/mL (≈ 22.3 µM)

Question: What does the source list for `CC[C@@H](O)[C@H](C)[C@@H]1OC(=O)[C@H](C)[C@@H](O[C@H]2C[C@@](C)(OC)[C@@H](O)[C@H](C)O2)[C@H](C)[C@@H](O[C@@H]2O[C@H](C)C[C@H](N(C)C)[C@H]2O)[C@@]2(C)CC(C)=C(O2)[C@@H]1C` [Compound 3a]?
Answer: MIC [1]: 64 µg/mL (≈ 91.4 µM); MIC [2, 11]: 64 µg/mL (≈ 91.4 µM); MIC [3]: 128 µg/mL (≈ 183 µM); MIC [4]: 64 µg/mL (≈ 91.4 µM); MIC [5]: > 128 µg/mL; MIC [6]: 64 µg/mL (≈ 91.4 µM); MIC [7]: 128 µg/mL (≈ 183 µM); MIC [8]: 64 µg/mL (≈ 91.4 µM); MIC [9]: 64 µg/mL (≈ 91.4 µM); MIC [10]: 64 µg/mL (≈ 91.4 µM)

Question: With `CO[C@]1(C)C[C@H](O[C@H]2[C@H](C)[C@@H](O[C@@H]3O[C@H](C)C[C@H](N(C)C)[C@H]3O)[C@@]3(C)CC(C)=C(O3)[C@H](C)[C@H](C(C)=O)OC(=O)[C@@H]2C)O[C@@H](C)[C@@H]1O` [Compound 4] as the compound, how does the MIC [1] read?
Answer: > 128 µg/mL

Question: What about the MIC [2, 11] of the same compound?
Answer: > 128 µg/mL

Question: What about the MIC [3] of the same compound?
Answer: 16 µg/mL (≈ 24.4 µM)

Question: And the MIC [4]?
Answer: 64 µg/mL (≈ 97.6 µM)

Question: What about the MIC [5] of the same compound?
Answer: > 128 µg/mL

Question: And the MIC [6]?
Answer: > 128 µg/mL

Question: What about the MIC [7] of the same compound?
Answer: 16 µg/mL (≈ 24.4 µM)

Question: And the MIC [8]?
Answer: 16 µg/mL (≈ 24.4 µM)

Question: What about the MIC [9] of the same compound?
Answer: 128 µg/mL (≈ 195 µM)

Question: And the MIC [10]?
Answer: 32 µg/mL (≈ 48.8 µM)

Question: For `CC[C@@H](O)[C@@](C)(O)[C@@H]1OC(=O)[C@H](C)[C@@H](O[C@H]2C[C@@](C)(OC)[C@@H](O)[C@H](C)O2)[C@H](C)[C@@H](O[C@@H]2O[C@H](C)C[C@H](N(C)C)[C@H]2O)[C@@]2(C)CC(C)(O)C(O)(O2)[C@@H]1C` (some centres unmarked) [Compound 6], which MIC [1] is on record?
Answer: 64 µg/mL (≈ 85.3 µM)

Question: And the MIC ([2]; Staphylococcus aureus, X1.1, read-out: minimal inhibitory concentration (MIC))?
Answer: 128 µg/mL (≈ 171 µM)

Question: What about the MIC [3] of the same compound?
Answer: 8 µg/mL (≈ 10.7 µM)

Question: What about the MIC [4] of the same compound?
Answer: 16 µg/mL (≈ 21.3 µM)

Question: What about the MIC [5] of the same compound?
Answer: > 128 µg/mL

Question: And the MIC [6]?
Answer: > 128 µg/mL

Question: And the MIC [7]?
Answer: 8 µg/mL (≈ 10.7 µM)

Question: What about the MIC [8] of the same compound?
Answer: 16 µg/mL (≈ 21.3 µM)

Question: What about the MIC [9] of the same compound?
Answer: 64 µg/mL (≈ 85.3 µM)

Question: And the MIC [10]?
Answer: 8 µg/mL (≈ 10.7 µM)

Question: For `CO[C@]1(C)C[C@H](O[C@H]2[C@H](C)[C@@H](O[C@@H]3O[C@H](C)C[C@H](N(C)C)[C@H]3O)[C@@](C)(CC(C)=O)OC(=O)[C@H](C)[C@H](C(C)=O)OC(=O)[C@@H]2C)O[C@@H](C)[C@@H]1O` [Compound 8], which MIC [1] is on record?
Answer: > 128 µg/mL

Question: What about the MIC [2, 11] of the same compound?
Answer: > 128 µg/mL

Question: What about the MIC [3] of the same compound?
Answer: 64 µg/mL (≈ 93 µM)

Question: What about the MIC [4] of the same compound?
Answer: 128 µg/mL (≈ 186 µM)

Question: What about the MIC [5] of the same compound?
Answer: > 128 µg/mL

Question: And the MIC [6]?
Answer: > 128 µg/mL

Question: And the MIC [7]?
Answer: 64 µg/mL (≈ 93 µM)

Question: What about the MIC [8] of the same compound?
Answer: 64 µg/mL (≈ 93 µM)

Question: And the MIC [9]?
Answer: > 128 µg/mL

Question: What about the MIC [10] of the same compound?
Answer: 32 µg/mL (≈ 46.5 µM)
